Test results from the supplement of paper PMC5908809.

Legend:
[1] = system: normal NK cells expanded with K562-aAPC; experiment: percent inhibition of viability; higher = more inhibition; conditions: 72 h, IL-2 2.5 ng/mL
Procedure: (§1)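 Drug sensitivity and resistance testing on K562-aAPC-expanded normal NK cells: 5 concentrations (10-fold steps over a 10,000-fold range), 72 h at 37 °C, viability by CellTiter-Glo normalised to DMSO and benzethonium chloride controls; DSS from the fitted curve.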

[2] = system: DERL-7 (IL-2 2.5 ng/mL); experiment: as above; conditions: 72 h
[3] = system: IMC-1 (IL-2 20 ng/mL); experiment: as above; conditions: 72 h
[4] = system: KAI3 (IL-2 2.5 ng/mL); experiment: as above; conditions: 72 h
[5] = system: KHYG-1 (IL-2 2.5 ng/mL); experiment: as above; conditions: 72 h
[6] = system: NK-92 (IL-2 2.5 ng/mL); experiment: as above; conditions: 72 h
[7] = system: NK-YS (IL-2 2.5 ng/mL); experiment: as above; conditions: 72 h
[8] = system: NKL (IL-2 2.5 ng/mL); experiment: as above; conditions: 72 h
[9] = system: SNK-6 (IL-2 2.5 ng/mL); experiment: as above; conditions: 72 h
[10] = system: YT (IL-2 2.5 ng/mL); experiment: as above; conditions: 72 h
[11] = system: normal primary NK cells, pool 1 (3 donors) (IL-2 2.5 ng/mL); experiment: as above; conditions: 72 h
[12] = system: normal primary NK cells, pool 1 (3 donors), resting (IL-2 0 ng/mL); experiment: as above; conditions: 72 h
[13] = system: normal primary NK cells, pool 2 (3 donors) (IL-2 2.5 ng/mL); experiment: as above; conditions: 72 h
[14] = system: normal primary NK cells, pool 3 (3 donors) (IL-2 2.5 ng/mL); experiment: as above; conditions: 72 h
[15] = system: normal NK cells expanded with K562-aAPC; experiment: drug sensitivity score (DSS) (DSS units); higher = more sensitive; extreme values may be limits of the assay; conditions: 72 h; IL-2 2.5 ng/mL
Procedure: as §1

[16] = system: DERL-7 (IL-2 2.5 ng/mL); experiment: as above; conditions: 72 h
[17] = system: IMC-1 (IL-2 20 ng/mL); experiment: as above; conditions: 72 h
[18] = system: KAI3 (IL-2 2.5 ng/mL); experiment: as above; conditions: 72 h
[19] = system: KHYG-1 (IL-2 2.5 ng/mL); experiment: as above; conditions: 72 h
[20] = system: NK-92 (IL-2 2.5 ng/mL); experiment: as above; conditions: 72 h
[21] = system: NK-YS (IL-2 2.5 ng/mL); experiment: as above; conditions: 72 h
[22] = system: NKL (IL-2 2.5 ng/mL); experiment: as above; conditions: 72 h
[23] = system: SNK-6 (IL-2 2.5 ng/mL); experiment: as above; conditions: 72 h
[24] = system: YT (IL-2 2.5 ng/mL); experiment: as above; conditions: 72 h
[25] = system: normal primary NK cells, pool 1 (3 donors) (IL-2 2.5 ng/mL); experiment: as above; conditions: 72 h
[26] = system: normal primary NK cells, pool 1 (3 donors), resting (IL-2 0 ng/mL); experiment: as above; conditions: 72 h
[27] = system: normal primary NK cells, pool 2 (3 donors) (IL-2 2.5 ng/mL); experiment: as above; conditions: 72 h
[28] = system: normal primary NK cells, pool 3 (3 donors) (IL-2 2.5 ng/mL); experiment: as above; conditions: 72 h

COc1cc(OC2CCN(C)CC2)ccc1Nc1ncc2c(n1)n(C1CCCC1)c(=O)n2C [AZ 3146] (max concentration tested 10000 nM)
percent inhibition of viability [%]
Conditions	1 nM	10 nM	100 nM	1000 nM	10000 nM
[1]	-2.2	0.53	-2.22	4.68	95.5
[2]	-4.12	4.05	2.89	9.9	98.6
[3]	-1.3	2.72	8.86	9.14	100
[4]	-6.95	-0.01	1.16	23.6	97.9
[5]	3.47	1.13	9.55	13.1	104
[6]	0.39	-0.68	10.8	-7.78	55.7
[7]	1	1.98	6.37	19	93.4
[8]	-14.9	-7.34	-5.85	12.7	92.9
[9]	16.5	16.6	28.5	15.2	90
[10]	2.24	1.06	7.18	13.3	92.1
[11]	-2.73	-14.2	-10.5	0.05	89.1
[12]	8.87	-6.36	1.82	9.09	81.8
[13]	-14.1	-0.67	12.1	6.73	74.2
[14]	-14.2	1.88	2.52	5.03	80

Conditions	drug sensitivity score
[15]	5.96
[16]	7.08
[17]	7.02
[18]	9.06
[19]	7.83
[20]	2.49
[21]	8.24
[22]	7.26
[23]	7.53
[24]	7.34
[25]	4.98
[26]	6.04
[27]	5.18
[28]	5.18

N#Cc1ccc(COC[C@H]2O[C@@H](n3c(NCc4ccc(Cl)c(Cl)c4)nc4c(N)ncnc43)[C@H](O)[C@@H]2O)cc1 (max concentration tested 10000 nM)
percent inhibition of viability [%]
Conditions	1 nM	10 nM	100 nM	1000 nM	10000 nM
[1]	-3.56	-7.9	-9.32	1.88	14.8
[2]	4.78	2.63	2.42	7.67	32.1
[3]	-1.92	-0.39	-4.01	-16.8	97.2
[4]	1.01	1.02	-1.36	17.5	34.8
[5]	-2.11	-1.26	0.87	11.4	62.4
[6]	-0.8	4.51	-4.4	7.42	45.2
[7]	-1.65	1.3	-0.1	21.7	64.4
[8]	4.1	5.28	-8.68	9.7	9.11
[9]	5.72	12.3	-10.3	21.8	52.5
[10]	2.07	0.4	-2.55	12.2	59
[11]	-6.38	-11.1	5.83	5.84	18.5
[12]	-3.74	-9.12	7.84	15.3	41
[13]	-10.6	-2.26	-3.97	-0.12	12.3
[14]	-13.6	-13.5	-14	-9.19	-0.46

Conditions	drug sensitivity score
[15]	0.38
[16]	2.63
[17]	4.46
[18]	3.83
[19]	5.29
[20]	3.57
[21]	6.65
[22]	0
[23]	5.74
[24]	5.18
[25]	0.69
[26]	3.54
[27]	0.06
[28]	0

c1ccc2c(CCNc3ccc(Nc4ccncc4)cc3)c[nH]c2c1 [Serdemetan] (max concentration tested 10000 nM)
percent inhibition of viability [%]
Conditions	1 nM	10 nM	100 nM	1000 nM	10000 nM
[1]	3.3	-0.88	-3.23	41.7	99.6
[2]	1.57	3.06	5.72	93	99.8
[3]	-3.43	-4.48	-1.24	6.25	86.2
[4]	1.77	-7.13	13.3	71.7	96.4
[5]	-4.53	-3.7	-1.91	20.5	94.6
[6]	-2.5	-9.68	-24.1	16.9	89.1
[7]	-3.94	-6.06	-3.31	54.3	93.6
[8]	-4.48	-6.86	12.5	103	96.3
[9]	1.74	-8.4	-40.5	2.69	97.8
[10]	-0.01	-0.09	2.11	16.2	89.5
[11]	-2.89	-12	-5.86	54.6	98
[12]	-1.96	-20.5	-16.5	78.3	90.8
[13]	-12.5	-4.95	-4.4	34	94.8
[14]	-9.21	-2.68	-1.24	41.2	98.2

Conditions	drug sensitivity score
[15]	11
[16]	17.7
[17]	5.74
[18]	15.1
[19]	8.49
[20]	7.67
[21]	11.7
[22]	20.1
[23]	5.77
[24]	7.62
[25]	12
[26]	14
[27]	9.95
[28]	10.8

CC(C)(C)c1cnc(CSc2cnc(NC(=O)C3CCNCC3)s2)o1 [SNS-032] (max concentration tested 10000 nM)
percent inhibition of viability [%]
Conditions	1 nM	10 nM	100 nM	1000 nM	10000 nM
[1]	2.77	0	29.2	100	100
[2]	0.08	-3.51	77.5	100	100
[3]	-4.98	-6.51	97.6	99.1	98.8
[4]	-8.15	9.55	57.9	103	98.3
[5]	-2.99	-6.55	4.29	102	102
[6]	-11.5	-4.07	11.5	98.8	101
[7]	-1.14	9.07	83.6	100	99.8
[8]	-10.4	11.6	97.8	106	103
[9]	17.9	2.01	31.7	54	38
[10]	-0.35	4.14	57.7	103	101
[11]	-14.2	-9.83	88.9	98.2	98.8
[12]	-12.8	-19.9	79.9	91.5	93.9
[13]	-21	-13.7	80.7	94.5	96.5
[14]	-17.4	-11.5	48.5	98.1	99

Conditions	drug sensitivity score
[15]	22.3
[16]	26.9
[17]	29.5
[18]	25.1
[19]	18.7
[20]	19.8
[21]	29
[22]	32.3
[23]	13.4
[24]	24.9
[25]	28.1
[26]	26.1
[27]	26.6
[28]	23.9

C[C@@H](Oc1cc(-n2cnc3ccc(CN4CCN(C)CC4)cc32)sc1C(N)=O)c1ccccc1C(F)(F)F (max concentration tested 10000 nM)
percent inhibition of viability [%]
Conditions	1 nM	10 nM	100 nM	1000 nM	10000 nM
[1]	-4.93	10.2	55.8	59.8	101
[2]	-5.05	5.6	99	97.7	101
[3]	-5.44	-5.88	96.8	98	99.8
[4]	-0.2	19.3	57.2	46.8	103
[5]	-6.87	20.7	99	104	109
[6]	-10.3	68.8	96.9	98.4	108
[7]	-6.78	7.77	68.5	63.2	107
[8]	-22.4	10.7	76.8	76.5	107
[9]	-6.84	54.4	70.9	60.5	100
[10]	-6.84	0.54	79.4	64	108
[11]	-0.02	-2.73	1.92	18.8	99.3
[12]	15.5	24.8	22.1	54.6	96.9
[13]	-4.17	-1.65	6.09	21.6	97.1
[14]	-0.27	-3.72	15.8	9.91	100

Conditions	drug sensitivity score
[15]	19.8
[16]	31.2
[17]	29.6
[18]	19.3
[19]	33.8
[20]	38.4
[21]	23.1
[22]	27.8
[23]	27.6
[24]	27.5
[25]	8.55
[26]	15.5
[27]	8.79
[28]	7.17
